{"source": "patent US10328075B2", "about": "“Method of treatment and compounds for use therein” (Baker Heart and Diabetes Institute, priority 2015, dated 2019)", "type_in_all_cases": "cell-based", "key": {"hFPR2 [1]": {"molecular_target": "T1, hFPR2 (Homo sapiens, UniProt P25090)", "T1 construct": "expressed in transfected cells", "T1 sequence (P25090 1-351)": "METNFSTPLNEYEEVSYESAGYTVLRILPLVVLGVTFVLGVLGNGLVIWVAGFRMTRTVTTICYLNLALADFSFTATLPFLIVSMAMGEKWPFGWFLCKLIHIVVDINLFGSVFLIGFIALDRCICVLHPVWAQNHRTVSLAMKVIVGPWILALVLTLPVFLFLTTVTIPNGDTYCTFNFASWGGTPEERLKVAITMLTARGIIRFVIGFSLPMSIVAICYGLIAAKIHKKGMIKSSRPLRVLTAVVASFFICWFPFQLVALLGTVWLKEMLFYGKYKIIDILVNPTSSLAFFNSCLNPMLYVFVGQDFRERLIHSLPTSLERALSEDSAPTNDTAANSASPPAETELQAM", "test": "Akt1/2/3 (Ser473) phosphorylation in hFPR2-FlpIn-CHO cells", "settings": "for ΔLog(τ/KA), Akt 1/2/3 (Ser473) phosphorylation, hFPR2-Flpln-CHO: normalized transduction coefficient, reference agonist Cmpd43; for Log(τ/KA), Akt 1/2/3 (Ser473) phosphorylation, hFPR2-Flpln-CHO: transduction coefficient", "source_text": "(§1) cDNDA construct and generation of stable cell lines: cDNA in pcDNA3.1^+ encoding the human formyl peptide receptors (FPR) subtypes, hFPR1, hFPR2 and hFPR3 was obtained from Invitrogen. The sequences for 3 hFPR receptors were amplified by PCR and cloned into the Gateway entry vector, pDONR202™, using the BP clonase enzyme mix, according to the manufactures' instructions (Invitrogen Inc, Carlsbad, Calif., USA). All hFPR receptors constructs in pDONR201™ were subsequently transfected into the pEF5/FRT/V5/dest vector using the LR clonase enzyme mix (Invitrogen). Receptor constructs (pEF5/FRT/V5/dest) were used to transfect FIp-In CHO cells as described previously (Valant C et al., PNAS, 2014). Cells were selected using 500 μg/mL hydromycin to generate cell lines stably expressing each receptor construct. Cells were maintained and cultured in high glucose DMEM supplemented with 10% FBS, 16 mM HEPES and 500 μg/mL hydromycin at 37° C. under a humidified atmosphere containing 5% CO2.\n(§2) In the various assays described below, cells were plated into 96-well transparent cell culture plates at 4×10^4 cells per well, cultured overnight in serum-free media at 37° C. in 5% CO2.\n(§3) Measurement of Akt1/2/3 phosphorylation and Akt 1: The same lysate was used for measurement of Akt1/2/3 phosphorylation (Ser473) and Akt1 (Thr308). Cells were lysed in SureFire lysis buffer and transferred to 384-well opaque proxiplates. Under low-light conditions, a 1:10:40 (v:v:v) dilution of AlphaScreen acceptor beads:Surefire activation buffer:Surefire reaction buffer was prepared and the plate was incubated in the dark at RT for 2 h. Then, a 1:20 (v:v) dilution of AlphaScreen donor beads/dilution was prepared and incubated in the dark at RT for another 2 h, before the fluorescence signal was measured by used of a Fusion-α plate reader (PerkinElmer Life and Analytical Sciences) with standard AlphaScreen settings. Receptor mediated phosphorylation of Akt1/2/3 (Ser473) and Akt1 (Thr308) were determined using the AlphaScreen™ […] SureFire™ kit, as per as per manufacturer's instructions. Data were normalized to the maximal response elicited by 10% (v:v) FBS at the same time point.\n(§4) Data analysis: All data were analysed using GraphPad Prism 6.0 (GraphPad Software, San Deigo, Calif., USA). Where appropriate, concentration-response curves were fitted to derive the maximal agonist effect (Emax), and the ligand potency estimate (pEC50), where Emax is the maximal possible response of the system (not the agonist), basal is the basal level of response in the absence of agonist, and pEC50 is the negative logarithm of the agonist concentration that gives a response halfway between Emax and basal.\n(§5) In the present study, FIp-IN CHO cells and Gateway plasmid were obtained from Invitrogen Inc (Carlsbad, Calif., USA). The sequences for all 3 known human FPRs (hFPR1, hFPR2 and hFPR3) were amplified by PCR and cloned into the Gateway entry vector, pDONR202TM, using the BP clonase enzyme mix, according to the manufacturers' instructions. The hFPR pDONR201TM constructs were subsequently transfected into the pEF5/FRT/V5/dest vector using the LR clonase enzyme mix (Invitrogen). Receptor constructs (pEF5/FRT/V5/dest) were used to transfect FIp-IN CHO cells, as described previously (Valant et al. 2014). Cells were selected using 500 μg/mL hydromycin to generate cell lines stably expressing each human receptor construct. Cells were maintained and cultured in high glucose Dulbecco's modified eagle medium (DMEM) supplemented with 10% fetal bovine serum (FBS, from JRH Biosciences, Lenexa, Kans., USA) and 500 μg/mL hydromycin B (Invitrogen Inc) at 37° C. under a humidified atmosphere containing 5% CO2. Cell were plated into 96-well transparent cell culture plates at 4×10^4 cells per well, cultured overnight in serum-free media at 37° C. in 5% CO2."}, "hFPR1": {"molecular_target": "T2, hFPR1 (Homo sapiens, UniProt P21462)", "T2 construct": "expressed in transfected cells", "T2 sequence (P21462 1-350)": "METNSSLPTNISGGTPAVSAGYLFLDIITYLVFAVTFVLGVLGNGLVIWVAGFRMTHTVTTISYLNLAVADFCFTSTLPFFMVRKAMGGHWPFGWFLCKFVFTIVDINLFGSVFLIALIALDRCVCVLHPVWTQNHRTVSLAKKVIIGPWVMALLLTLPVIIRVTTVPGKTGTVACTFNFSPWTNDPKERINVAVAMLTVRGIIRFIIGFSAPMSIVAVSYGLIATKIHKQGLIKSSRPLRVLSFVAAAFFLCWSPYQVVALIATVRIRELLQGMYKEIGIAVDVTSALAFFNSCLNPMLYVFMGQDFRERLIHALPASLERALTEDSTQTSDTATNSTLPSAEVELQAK", "test": "Quantification of biased agonism (operational model) at hFPR1 in CHO cells", "settings": "for Bias (away from Ca2+i), hFPR1-FlpInCHO cells in vitro: Table 9", "text": "To quantify biased agonism mediated by each agonist across the various pathways ([Ca^2+], mobilization, pERK1/2, Akt1/2/3 and inhibition of cAMP accumulation), agonist concentration-response curves were refitted using the operation model normalized to the transduction ratio of a reference agonist (in this case, BIDI-002) as described previously (Stewart G D et al., 2009). Under these conditions, if the test agonist and the reference agonist activate the two pathways through a common receptor conformation, the log [bias factor] should be 0.0 (or bias factor different from 1.0), irrespective of differences in response amplification between pathways. In contrast, significant deviation of log [bias factor] from 0.0 (or bias factor different from 1.0) indicates the involvement of distinct conformations for the different agonists. All affinities, potencies, efficacies, and cooperativity parameters were estimated as logarithms (Christopoulos, 1998). Results are expressed as means±S.E. unless otherwise stated. Statistical analyses were by Student's t test, or one-way ANOVA followed by Dunnett's Comparison or Tukey's post-hoc test, as appropriate. Values of p<0.05 were considered statistically significant.\nA “transduction ratio” is firstly derived for each response (τ/KA, where τ represents efficacy, and KA affinity, of the agonist for each GPCR conformational state), extracted from each concentration-response curve. “Bias factors” (ΔΔ(τ/KA)) were then calculated by normalizing the transduction ratio to a reference ligand (in this case, Cmpd43) and reference pathway, which here was Akt1/2/3(Thr308) phosphorylation. Lastly, bias factors were plotted on a ‘web of bias’ to visualize the potential for biased agonism. […] Under these conditions, if the test agonist and the reference agonist activate the two pathways through a common receptor conformation, the log [bias factor] should be 0.0 (i.e. the bias factor 1.0), irrespective of differences in response amplification between pathways. In contrast, significant deviation of log [bias factor] away from 0.0 (i.e. where the bias factor is different to 1.0) indicates the involvement of distinct conformations for the different agonists. All affinities, potencies, efficacies, and cooperativity parameters were estimated as logarithms (Kenakin et al. 2012).\nFive signaling pathways were examined, namely pERK1/2-phosphorylation, Akt1/2/3(Ser473)-phosphorylation, Akt1(Thr308)-phosphorylation, increases in Ca2+i and inhibition of forskolin-induced cAMP accumulation. An operational model of agonism was fitted to each concentration-response curve to estimate a transduction ratio (τ/KA) for each agonist, at each pathway assessed, as described (FIG. 21B) (Kenakin et al. 2012). Transduction ratios were normalized to a reference agonist (Cmpd43) and a reference pathway (Akt1/2/3(Thr308)-phosphorylation), generating bias factors and therefore allowing quantitative cross-pathway comparison for each agonist."}, "hFPR2 [2]": {"molecular_target": "T1, hFPR2", "test": "Akt (Thr308) phosphorylation in hFPR2-FlpIn-CHO cells", "settings": "for ΔLog(τ/KA), Akt 1/2/3 (Thr308) phosphorylation, hFPR2-Flpln-CHO: normalized transduction coefficient, reference agonist Cmpd43; for Log(τ/KA), Akt 1/2/3 (Thr308) phosphorylation, hFPR2-Flpln-CHO: transduction coefficient", "source_text": "as §1, §2, §3, §4, §5"}, "[3]": {"settings": "Table 3, percentage of Akt1/2/3 phosphorylation elicited by 10% FBS, read-out: Emax (%), Akt 1/2/3 (Ser473), hFPR2-Flpln-CHO"}, "[4]": {"settings": "Table 8, percent of response elicited by 10% FBS, read-out: Emax, Akt 1/2/3 (Ser473) phosphorylation, hFPR2-Flpln-CHO"}, "[5]": {"settings": "Table 3, percentage of Akt1/2/3 phosphorylation elicited by 10% FBS, read-out: Emax (%), Akt 1 (Thr308) phosphorylation, hFPR2-Flpln-CHO"}, "[6]": {"settings": "Table 8, percent of response elicited by 10% FBS, read-out: Emax, Akt 1/2/3 (Thr308) phosphorylation, hFPR2-Flpln-CHO"}}, "data": [{"smiles": "CC(C)C1C(NC(=O)Nc2ccc(Cl)cc2)C(=O)N(c2ccccc2)N1C", "note": "(stereo not drawn) [BIDI-002]", "values": [{"measurement": "Emax", "setting": "hFPR2 [1]; [3]", "value": "30 ± 6", "unit": "%"}, {"measurement": "EC50", "setting": "hFPR2 [1]; Table 3, read-out: pEC50, Akt 1/2/3 (Ser473), hFPR2-Flpln-CHO (converted)", "value": 145, "unit": "nM"}, {"measurement": "ΔLog(τ/KA), Akt 1/2/3 (Ser473) phosphorylation, hFPR2-Flpln-CHO", "setting": "hFPR2 [1]; Table 8", "value": 0.0}, {"measurement": "Emax", "setting": "hFPR2 [1]; [4]", "value": "30 ± 6", "unit": "%"}, {"measurement": "EC50", "setting": "hFPR2 [1]; Table 8, read-out: pEC50, Akt 1/2/3 (Ser473) phosphorylation, hFPR2-Flpln-CHO (converted)", "value": 158, "unit": "nM"}, {"measurement": "Log(τ/KA), Akt 1/2/3 (Ser473) phosphorylation, hFPR2-Flpln-CHO", "setting": "hFPR2 [1]; Table 8", "value": "6.9 ± 0.4"}, {"measurement": "Bias (away from Ca2+i), hFPR1-FlpInCHO cells in vitro", "setting": "hFPR1", "value": "No"}, {"measurement": "Preference to Akt phosphorylation, ERK phosphorylation and cAMP accumulation (degree of bias)", "setting": "hFPR1; operational model, relative to BIDI-002, hFPR receptors", "value": "approximately 20 fold"}, {"measurement": "Emax", "setting": "hFPR2 [2]; [5]", "value": "27 ± 2", "unit": "%"}, {"measurement": "EC50", "setting": "hFPR2 [2]; Table 3, read-out: pEC50, Akt 1 (Thr308) phosphorylation, hFPR2-Flpln-CHO (converted)", "value": 138, "unit": "nM"}, {"measurement": "ΔLog(τ/KA), Akt 1/2/3 (Thr308) phosphorylation, hFPR2-Flpln-CHO", "setting": "hFPR2 [2]; Table 8", "value": 0.0}, {"measurement": "Emax", "setting": "hFPR2 [2]; [6]", "value": "27 ± 2", "unit": "%"}, {"measurement": "EC50", "setting": "hFPR2 [2]; Table 8, read-out: pEC50, Akt 1/2/3 (Thr308) phosphorylation, hFPR2-Flpln-CHO (converted)", "value": 126, "unit": "nM"}, {"measurement": "Log(τ/KA), Akt 1/2/3 (Thr308) phosphorylation, hFPR2-Flpln-CHO", "setting": "hFPR2 [2]; Table 8", "value": "7.0 ± 0.2"}]}, {"smiles": "Cc1cc(Cc2cccnc2)c(=O)n(CC(=O)Nc2ccc(Cl)cc2)n1", "note": "[MIPS-0010396]", "values": [{"measurement": "Bias (away from Ca2+i), hFPR1-FlpInCHO cells in vitro", "setting": "hFPR1", "value": "Strong"}, {"measurement": "Biased agonism / bias away from Ca2+i", "setting": "hFPR1; in words", "value": "displays Ca2+i bias"}]}, {"smiles": "CSCC[C@H](NC=O)C(=O)N[C@@H](CC(C)C)C(=O)N[C@@H](Cc1ccccc1)C(=O)O", "note": "[fMLP, N-formyl-Met-Leu-Phe]", "values": [{"measurement": "Emax", "setting": "hFPR2 [1]; [3]", "value": "13 ± 4", "unit": "%"}, {"measurement": "ΔLog(τ/KA), Akt 1/2/3 (Ser473) phosphorylation, hFPR2-Flpln-CHO", "setting": "hFPR2 [1]; Table 8", "value": "−2.0 ± 0.2"}, {"measurement": "Emax", "setting": "hFPR2 [1]; [4]", "value": "20 ± 4", "unit": "%"}, {"measurement": "Log(τ/KA), Akt 1/2/3 (Ser473) phosphorylation, hFPR2-Flpln-CHO", "setting": "hFPR2 [1]; Table 8", "value": "4.9 ± 0.2"}, {"measurement": "Emax", "setting": "hFPR2 [2]; [5]", "value": "7 ± 2", "unit": "%"}, {"measurement": "ΔLog(τ/KA), Akt 1/2/3 (Thr308) phosphorylation, hFPR2-Flpln-CHO", "setting": "hFPR2 [2]; Table 8", "value": "−2.1 ± 0.3"}, {"measurement": "Emax", "setting": "hFPR2 [2]; [6]", "value": "21 ± 2", "unit": "%"}, {"measurement": "Log(τ/KA), Akt 1/2/3 (Thr308) phosphorylation, hFPR2-Flpln-CHO", "setting": "hFPR2 [2]; Table 8", "value": "4.8 ± 0.1"}]}]}
